# Experimental data published in patent US10400263B2, “Tripeptide rhodamine compound” (Kingston Uninversity Higher Education Corporation, priority 2012, dated 2019).
# Tests used:
# S. epidermidis = experiment: LGX staphylocoagulase fluorescence assay, S. epidermidis; format: cell-based, Staphylococcus Epidermidis; conditions: for fluorescence over the 6 hour time period: S. epidermidis, high and low concentrations
# Procedure: (§1) Each sample was rinsed liberally in sterile 1×PBS and varying concentrations of bacterial suspension from 10^0-10^6 were generated by serial dilution in 1×PBS. Additionally, bacterial cultures were furthermore maintained on nutrient agar to assess the coagulase status of the isolate.
# (§2) To determine the effects of varying bacterial concentrations with respect to bacterial strains and concentrations of the compounds according to the present invention on staphylocoagulase activity, 100 and 50 μM solutions containing LGX were prepared in 1×PBS with the addition of 0.05 M Tris Buffer and 0.1 M NaCl to maintain a pH of 8.5 using LGX dissolved in MeOH so that final concentration of methanol was no more than 2.5%. Furthermore, an appropriate concentration (100 μM and 50 μM, respectively) of human prothrombin was added to the solution.
# The plate reader used was a Fluostar Optima, and the plates used were Nunclon Surface 96 well plates. Positive controls for each experiment was a strain of MRSA, and the negative control for each experiment was a strain of E. coli, both of which were picked at random to ensure there was no bias within the data. A 1:1 ratio of the LGX solution with PBS was also assayed as “LGX alone” sample, which has been designated as a black line on the graphs below. n=3 cultures were assayed in each case. […]
# (§3) To determine the effects of varying bacterial concentrations with respect to bacterial strains and LGX concentrations on staphylocoagulase activity, 100 and 50 μM solutions of LGX were prepared in 1×PBS with the addition of 0.05 M Tris Buffer and 0.1 M NaCl to maintain a pH of 8.5 using LGX dissolved in MeOH so that final concentration of methanol was no more than 2.5%. […] The plate reader used was a Fluostar Optima, and the plates used were Nunclon Surface 96 well plates.
# S. warneri = experiment: LGX system, S. warneri; format: cell-based
# Procedure: as §1
# as §2, with “Furthermore, an appropriate concentration (100 μM and 50 μM, respectively) of human prothrombin was added to the solution.” left out
# (§4) The plate reader used was a Fluostar Optima, and the plates used were Nunclon Surface 96 well plates. […]
# as §3
# MSSA = experiment: LGX staphylocoagulase fluorescence assay, MSSA isolates; format: cell-based, Staphylococcus aureus
# Procedure: as §1, §2
# (§5) The plate reader used was a Fluostar Optima, and the plates used were Nunclon Surface 96 well plates. Positive controls for each experiment was a strain of MRSA, and the negative control for each experiment was a strain of E. coli, both of which were picked at random to ensure there was no bias within the data. A 1:1 ratio of the LGX solution with PBS was also assayed as “LGX alone” sample, which has been designated as a black line on the graphs below. n=3 cultures were assayed in each case.
# (§6) Clinical isolates of Methicillin Resistant Staphylococcus Aureus (MRSA), Methicillin Sensitive Staphylococcus Aureus (MSSA), Staphylococcus Epidermidis, Eschericia coli and other staphyloccal species were cultured on nutrient agar prior to being grown overnight in nutrient broth under shaking conditions at 37° C. Each sample was rinsed liberally in sterile 1×PBS and varying concentrations of bacterial suspension from […] were generated by serial dilution in 1×PBS. Additionally, bacterial cultures were furthermore maintained on nutrient agar to assess the coagulase status of the isolate.
# as §3, with “2.5%. Furthermore, an appropriate concentration (100 μM and 50 μM, respectively) of human prothrombin was added to the solution. 90 μl of LGX solution in addition to each respective bacterial isolate at varying concentrations was added to a microtitre plate.” for “2.5%.”
# M. luteus = experiment: LGX system, M. luteus; format: cell-based
# Procedure: as §1
# as §2, with “Furthermore, an appropriate concentration (100 μM and 50 μM, respectively) of human prothrombin was added to the solution.” left out
# as §4, §3
# MRSA and MSSA = experiment: LGX staphylocoagulase fluorescence assay, MRSA and MSSA together; format: cell-based, Staphylococcus aureus
# Procedure: as §1, §2, §5, §6
# as §3, with “2.5%. Furthermore, an appropriate concentration (100 μM and 50 μM, respectively) of human prothrombin was added to the solution. 90 μl of LGX solution in addition to each respective bacterial isolate at varying concentrations was added to a microtitre plate.” for “2.5%.”
# S. aureus = experiment: LGX test on volunteers' nasal swabs with prothrombin or prethrombin; format: cell-based, Staphylococcus aureus; conditions: for samples tested positive for S. aureus: threshold 20,000 RFU
# Procedure: A population of 113 volunteers were administered a “set” of swabs, comprising two swabs that were pre-moistened with sterile H2O, and one swab that was dry. Each volunteer swabbed the internal periphery of each nostril with the two moistened swabs. Each volunteer then subsequently swabbed the internal periphery of each nostril with the dry swab. The swabs were then placed into amies transport medium to maintain bacterial cell viability. Each sample was anonymous and the study was randomised.
# A 100 μL solution of 100 μM LGX with either 1×prothrombin or 1×prethrombin (buffered to pH 8.5 with Tris base and NaCl), was pipetted into sterile 1.5 mL eppendorf tubes. Each moistened swab was placed into the eppendorf tube, and cut to a length to facilitate closure of the tube, with a pair of sterilised scissors. Each tube was subjected to vigorous agitation and the swab tips were removed with sterile forceps. The remaining solution was subsequently pipetted into a microtitre plate (Nunclon 96 well plates). The relative fluorescence of the sample was then recorded every fifteen minutes over a six hour time period (λex.=488 nm and λem=525 nm).
# In tandem with this, the remaining swabs (in amies transport medium) were transferred onto pre warmed mannitol salt agar (chromogenic agar for the determination of S. aureus) plates and incubated for up to 48 hours at 37° C. The colour change and colony appearance of the bacteria was noted. […] Following this, 20 separate, discrete colonies were sub-cultured onto nutrient agar and also onto Baird Parker Agar (agar for the determination of S. aureus and S. epidermidis). After an overnight culture at 37° C., colony morphology and appearance was observed (S. aureus colonies are large with a pale “halo” surrounding the colonies, S. epidermidis colonies are small and black).
# Additionally, isolates from the nasal swabs cultured on nutrient agar were tested for coagulase activity using a staphylase test kit (oxoid). Loopfuls of bacteria were assayed based on coagulase mediated clumping of fibrinogen-sensitised ovine blood cells.
# A final test to determine the identification of the bacteria within each sample, a gram stain was performed. This is based on the presence of peptidoglycan in gram positive cells and their ability to retain crystal violet. S. aureus is a gram positive bacterium. Briefly, a drop of sterile dH2O was placed on a microscope slide and a small amount of culture was applied to this and allowed to air dry. The slide was passed though a flame to fix the bacteria. Crystal Violet was applied to each slide, followed by washing with dH2O. Iodine was then added to the slides, followed by washing with dH2O and subsequent decolourisation with ethanol and another wash with dH2O. Each slide was counterstained with carbol fushchin (for gram negative), rinsed again and allowed to dry.
# Each swab sample was examined for the presence of S. aureus based on the above identification techniques, and termed “positive” or “negative”. The results were compared to the finding of the assay of the current invention (LGX test), with either prethrombin or prothrombin, and plotted on a bar chart as a function of relative fluorescence units.
# S. hominus = experiment: LGX system, S. hominus; format: cell-based
# Procedure: as §1
# as §2, with “Furthermore, an appropriate concentration (100 μM and 50 μM, respectively) of human prothrombin was added to the solution.” left out
# as §4, §3
smiles,measurement,setting,value
"CC(C)[C@H](NC(=O)OC(C)(C)C)C(=O)N1CCC[C@H]1C(=O)N[C@@H](CCCNC(=N)N)C(=O)Nc1ccc2c(c1)Oc1cc(NC(=O)[C@H](CCCNC(=N)N)NC(=O)[C@@H]3CCCN3C(=O)[C@@H](NC(=O)OC(C)(C)C)C(C)C)ccc1C21OC(=O)c2ccccc21 (stereo partly drawn) [LGX, Rho-(Arg-Pro-Val-NHBoc)2]",fluorescence over the 6 hour time period,"S. epidermidis; 50 μM LGX, FIG. 13",no increase in fluorescence was observed
same,fluorescence over the 6 hour time period,"S. epidermidis; 100 μM LGX, FIG. 14",no increase in fluorescence was observed
same,LGX SYSTEM,S. epidermidis; S. EPIDERMIDIS,−
same,LGX SYSTEM,S. warneri,−
same,samples reaching maximum fluorescence,"MSSA; 50 μM LGX, MSSA 10^2, 6 hours",no samples reached maximum fluorescence
same,"samples reaching the maximum reading of 65,000 RFU within 2.5 hours","MSSA; 50 μM LGX, MSSA 10^3",25%
same,samples that had reached maximum fluorescence within 6 hours,"MSSA; 50 μM LGX, MSSA 10^3",60%
same,samples failed to reach maximum fluorescence within 6 hours,"MSSA; 50 μM LGX, MSSA 10^5",5%
same,"samples reaching the maximum reading of 65,000 RFU within 2 hours","MSSA; 50 μM LGX, MSSA 10^5",75%
same,time by which maximum fluorescence level was reached,"MSSA; 50 μM LGX, MSSA 10^6",≤ 2 h
same,"samples achieving a fluorescence reading of 20,000 within 1 hour","MSSA; 100 μM LGX, MSSA 10^2",90%
same,samples reached maximum fluorescence over a 6 hour time period,"MSSA; 100 μM LGX, MSSA 10^2",25%
same,samples reached maximum fluorescence within 2 hours,"MSSA; 100 μM LGX, MSSA 10^2",5%
same,samples reached maximum fluorescence within 4 hours,"MSSA; 100 μM LGX, MSSA 10^3",45%
same,samples in which fluorescence reached its upper limits within 1 hours,"MSSA; 100 μM LGX, MSSA 10^4",70%
same,samples remained below maximum fluorescence,"MSSA; 100 μM LGX, MSSA 10^4",20%
same,LGX SYSTEM,MSSA; MSSA,+
same,LGX SYSTEM,M. luteus,−
same,coagulase result with LGX system,M. luteus,negative
same,"isolates failed to reach a fluorescence reading of 20,000 within 30 minutes","MRSA and MSSA; 50 μM LGX, 10^2 cell concentration of MRSA and MSSA",20%
same,"isolates failed to reach a fluorescence reading of 20,000 within 30 minutes","MRSA and MSSA; 50 μM LGX, 10^3 cell concentration of MRSA and MSSA",5%
same,time for fluorescence to reach a maximum,"MRSA and MSSA; 50 μM LGX, MRSA and MSSA 10^5, FIG. 13",approximately 3 hours
same,fluorescence reading reached (almost instantaneous reaction),"MRSA and MSSA; 50 μM LGX, MRSA and MSSA 10^6, FIG. 13","65,000 RFU"
same,"samples above 20,000 fluorescence units after 1 hour","MRSA and MSSA; 50 μM LGX, all concentrations of bacteria, MRSA and MSSA",more than 80%
same,"samples with a fluorescence reading greater than 20,000 within 30 minutes","MRSA and MSSA; 100 μM LGX, 10^3 cell concentration and above",100%
same,fluorescence reading reached (almost instantaneous reaction),"MRSA and MSSA; 100 μM LGX, MRSA and MSSA 10^4 and 10^3, and MSSA 10^2, FIG. 14","65,000 RFU"
same,response compared with 100 and 500 μM coumarin system,"MRSA and MSSA; 100 μM LGX, MRSA and MSSA at 10^2, FIG. 12",superior response in terms of selectivity and speed
same,lowest bacterial concentration at which presence of bacteria is detected,"MRSA and MSSA; no culturing, fluorescence 525 nm (ex 488 nm)",10^2
same,sensitivity advantage over N-t-BOC-val-pro-arg-7-amido-4-methylcoumarin,"MRSA and MSSA; response at 10^2 Staphylococcus aureus units, 525 nm (ex 488 nm)",several orders of magnitude (10^4 bacteria)
same,sensitivity relative to the existing commercial dye system,"MRSA and MSSA; staphylothrombin assay for detection of MRSA and MSSA, estimate",10 times
same,time in which S. aureus was efficiently detected,S. aureus; 100 μM LGX with 1×prethrombin,15 min
same,samples tested positive for S. aureus,"S. aureus; 100 μM LGX with 1×prethrombin, 15 minutes",approximately 49 samples
same,samples tested positive for S. aureus,"S. aureus; 100 μM LGX with 1×prethrombin, 60 minutes",approximately 49 samples
same,time in which S. aureus was efficiently detected,S. aureus; 100 μM LGX with 1×prothrombin,15 min
same,samples tested positive for S. aureus,"S. aureus; 100 μM LGX with 1×prothrombin, 15 minutes, 113 volunteers",approximately 29 samples
same,samples tested positive for S. aureus,"S. aureus; 100 μM LGX with 1×prothrombin, 60 minutes",approximately 34 samples
same,LGX SYSTEM,S. hominus,−
